# According to US10689425B2, “Collagen-binding synthetic peptidoglycans, preparation, and methods of use” (Purdue Research Foundation, priority 2008, dated 2020):
# Assays:
# [1] = tested on: Human coronary artery smooth muscle cells (HCA SMC); assay: Gel compaction by cells seeded in collagen gels; format: cell-based; conditions: Day 7
# Procedure: Human coronary artery smooth muscle cells (HCA SMC) (Cascade Biologics) were cultured in growth medium (Medium 231 supplemented with smooth muscle growth factor). Cells from passage 3 were used for all experiments. Differentiation medium (Medium 231 supplemented with 1% FBS and 1× pen/strep) was used for all experiments unless otherwise noted.
# Collagen gels were prepared with each additive as described with the exception that the 1×PBS example addition was omitted to accommodate the addition of cells in media. After incubating on ice for 30 min, HCA SMCs in differentiation medium were added to the gel solutions to a final concentration of 1×10^6 cells/mL. Gels were formed in quadruplicate in 48-well non-tissue culture treated plates (Costar) for 6 hrs before adding 500 μL/well differentiation medium. Gels were freed from the well edges after 24 hrs. Medium was changed every 2-3 days and images for compaction were taken at the same time points using a Gel Doc System (Bio-Rad). The cross-sectional area of circular gels correlating to degree of compaction was determined using ImageJ software (NIH). Gels containing no cells were used as a negative control and cells in collagen gels absent additive were used as a positive control. By day 10 all gels had compacted to approximately 10% of the original gel area, and differences between additives were small.
# [2] = tested on: HCA SMCs; assay: Elastin content by Fastin elastin assay; format: cell-based, Human; conditions: gels cultured for 10 days
# Procedure: Differentiation medium was changed every three days and gels were cultured for 10 days. […] Gels were rinsed in 1×PBS overnight to remove serum protein, and gels were tested for elastin content using the Fastin elastin assay per manufacturers protocol (Biocolor, County […].). Briefly, gels were solubilized in 0.25 M oxalic acid by incubating at 100° C. for 1 hr. Elastin was precipitated and samples were then centrifuged at 11,000×g for 10 min. The solubilized collagen supernatant was removed and the elastin pellet was stained by Fastin Dye Reagent for 90 min at room temperature. Samples were centrifuged at 11,000×g for 10 min and unbound dye in the supernatant was removed. Dye from the elastin pellets was released by the Fastin Dye Dissociation Reagent, and 100 μL samples were transferred to a 96-well plate (Costar). Absorbance was measured at 513 nm, and elastin content was calculated from an α-elastin standard curve.
# [3] = target: T1, collagen type I gels (Bos taurus, UniProt P02453+P02465); assay: Viscoelastic characterization of collagen type I gels (rheometer); conditions: 5:1, 10:1 and 30:1 collagen:additive; 0.1-1.0 Hz, 1.0 Pa
# T1 construct: purchased Inamed, Freemont, Calif; (Nutragen)
# Procedure: The PTFE printing restricted gels to the 20 mm diameter wettable region. Gels were formed in a humidified incubator at 37° C. overnight prior to mechanical testing. Slides were clamped on the rheometer stage of a AR-G2 rheometer with 20 mm stainless steel parallel plate geometry (TA Instruments, New Castle, Del.), and the 20 mm stainless steel parallel plate geometry was lowered to a gap distance of 600 μm using a normal force control of 0.25N to avoid excessive shearing on the formed gel. An iterative process of stress and frequency sweeps was performed on gels of collagen alone to determine the linear range. All samples were also tested over a frequency range from 0.1 Hz to 1.0 Hz and a controlled stress of 1.0 Pa. Statistical analysis using Design Expert software ([…], Minneapolis, Minn.) was performed at each frequency and a 5-way ANOVA used to compare samples. […] Viscoelastic characterization was performed as described in EXAMPLE 17 on gels formed with varying ratios of collagen to additive (treatment).
# T1 sequence (P02453 162-1217 limits assumed): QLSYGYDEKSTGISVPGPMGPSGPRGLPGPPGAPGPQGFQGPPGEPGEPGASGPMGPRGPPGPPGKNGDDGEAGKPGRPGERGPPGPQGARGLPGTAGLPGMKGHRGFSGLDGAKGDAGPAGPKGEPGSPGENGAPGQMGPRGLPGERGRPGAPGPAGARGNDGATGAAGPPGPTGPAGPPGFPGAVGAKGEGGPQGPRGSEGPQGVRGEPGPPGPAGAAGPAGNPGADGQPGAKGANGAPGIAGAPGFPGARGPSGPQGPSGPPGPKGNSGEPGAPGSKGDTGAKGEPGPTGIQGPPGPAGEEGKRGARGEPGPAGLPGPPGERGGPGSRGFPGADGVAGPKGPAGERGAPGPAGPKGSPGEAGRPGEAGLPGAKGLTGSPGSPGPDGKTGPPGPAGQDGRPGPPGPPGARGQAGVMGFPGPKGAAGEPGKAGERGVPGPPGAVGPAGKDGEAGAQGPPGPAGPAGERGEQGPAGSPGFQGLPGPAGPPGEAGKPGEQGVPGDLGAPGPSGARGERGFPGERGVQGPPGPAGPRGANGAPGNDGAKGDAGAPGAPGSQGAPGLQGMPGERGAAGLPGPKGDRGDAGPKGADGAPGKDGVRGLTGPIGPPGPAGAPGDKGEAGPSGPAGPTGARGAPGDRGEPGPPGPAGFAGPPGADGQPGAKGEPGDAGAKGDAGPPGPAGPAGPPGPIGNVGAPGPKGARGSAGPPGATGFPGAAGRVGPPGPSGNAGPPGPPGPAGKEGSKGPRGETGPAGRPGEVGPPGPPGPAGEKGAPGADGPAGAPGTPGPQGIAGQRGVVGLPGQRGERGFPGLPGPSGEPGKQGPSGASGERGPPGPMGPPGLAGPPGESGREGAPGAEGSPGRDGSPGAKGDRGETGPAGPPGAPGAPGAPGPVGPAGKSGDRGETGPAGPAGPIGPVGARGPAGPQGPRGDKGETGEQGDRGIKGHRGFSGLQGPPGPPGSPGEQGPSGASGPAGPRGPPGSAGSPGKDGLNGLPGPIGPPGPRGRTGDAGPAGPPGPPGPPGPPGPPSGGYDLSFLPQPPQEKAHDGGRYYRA
# T1 sequence (P02465 80-1117 limits assumed): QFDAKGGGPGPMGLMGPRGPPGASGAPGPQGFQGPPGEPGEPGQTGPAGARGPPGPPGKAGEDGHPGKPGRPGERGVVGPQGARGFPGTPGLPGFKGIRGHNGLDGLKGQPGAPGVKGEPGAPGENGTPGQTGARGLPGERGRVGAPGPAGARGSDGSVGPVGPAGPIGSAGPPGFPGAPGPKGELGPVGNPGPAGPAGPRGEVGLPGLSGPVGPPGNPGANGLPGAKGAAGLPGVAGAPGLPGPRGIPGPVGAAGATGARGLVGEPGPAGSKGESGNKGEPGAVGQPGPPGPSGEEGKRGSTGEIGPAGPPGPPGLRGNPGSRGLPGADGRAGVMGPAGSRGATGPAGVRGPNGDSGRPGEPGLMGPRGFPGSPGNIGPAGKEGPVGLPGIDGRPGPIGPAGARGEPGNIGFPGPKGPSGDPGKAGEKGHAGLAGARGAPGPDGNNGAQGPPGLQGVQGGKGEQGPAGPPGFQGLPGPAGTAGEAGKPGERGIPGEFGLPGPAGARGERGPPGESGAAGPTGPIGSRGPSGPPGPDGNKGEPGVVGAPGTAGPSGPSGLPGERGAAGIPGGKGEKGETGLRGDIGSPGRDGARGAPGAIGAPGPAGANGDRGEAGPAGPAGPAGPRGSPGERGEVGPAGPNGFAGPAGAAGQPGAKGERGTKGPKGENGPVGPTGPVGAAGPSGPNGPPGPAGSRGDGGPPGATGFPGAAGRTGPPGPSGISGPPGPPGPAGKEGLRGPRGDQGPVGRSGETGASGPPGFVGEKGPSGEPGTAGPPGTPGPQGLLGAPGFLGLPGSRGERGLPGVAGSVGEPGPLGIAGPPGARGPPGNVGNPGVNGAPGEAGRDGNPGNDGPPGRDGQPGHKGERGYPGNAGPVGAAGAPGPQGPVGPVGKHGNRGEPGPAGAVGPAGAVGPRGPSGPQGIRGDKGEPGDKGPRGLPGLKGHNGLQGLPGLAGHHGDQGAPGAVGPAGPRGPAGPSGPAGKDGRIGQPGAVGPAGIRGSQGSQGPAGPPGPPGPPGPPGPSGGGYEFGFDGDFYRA
substance,measurement,setting,value
dermatan sulfate [DS],"Gel compaction, statistical significance",[1],significant compared to collagen
same,Elastin production,[2],significantly decreased elastin production over untreated collagen
same,Stiffness of collagen gel (storage modulus G'),[3],increase the stiffness of the resulting collagen gel over untreated collagen
